Calls of active or inactive are those of the source.
Tests used:
Bcl-2-like protein 10 = target: T1, Bcl-2-like protein 10 (Homo sapiens, UniProt Q9HD36); assay: displacers of TR3 peptide from Bcl-B, primary screen, selectivity assay for Bfl-1 inhibitor project, biochemical, fluorescence polarization, FITC-TR3 peptide (AID 748);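 further: fluorescence polarization from a fluorescein-labelled TR3 peptide binding purified Bcl-B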
T1 sequence (Q9HD36 whole entry): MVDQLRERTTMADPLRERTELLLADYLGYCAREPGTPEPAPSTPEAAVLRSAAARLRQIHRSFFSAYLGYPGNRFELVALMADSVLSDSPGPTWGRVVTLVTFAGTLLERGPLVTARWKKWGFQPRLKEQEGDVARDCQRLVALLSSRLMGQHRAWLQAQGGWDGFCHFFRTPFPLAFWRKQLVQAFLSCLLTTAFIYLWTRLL

[1] = target: T2, Apoptotic protease-activating factor 1 (Homo sapiens, UniProt O14727); format: functional
T2 sequence (O14727 whole entry): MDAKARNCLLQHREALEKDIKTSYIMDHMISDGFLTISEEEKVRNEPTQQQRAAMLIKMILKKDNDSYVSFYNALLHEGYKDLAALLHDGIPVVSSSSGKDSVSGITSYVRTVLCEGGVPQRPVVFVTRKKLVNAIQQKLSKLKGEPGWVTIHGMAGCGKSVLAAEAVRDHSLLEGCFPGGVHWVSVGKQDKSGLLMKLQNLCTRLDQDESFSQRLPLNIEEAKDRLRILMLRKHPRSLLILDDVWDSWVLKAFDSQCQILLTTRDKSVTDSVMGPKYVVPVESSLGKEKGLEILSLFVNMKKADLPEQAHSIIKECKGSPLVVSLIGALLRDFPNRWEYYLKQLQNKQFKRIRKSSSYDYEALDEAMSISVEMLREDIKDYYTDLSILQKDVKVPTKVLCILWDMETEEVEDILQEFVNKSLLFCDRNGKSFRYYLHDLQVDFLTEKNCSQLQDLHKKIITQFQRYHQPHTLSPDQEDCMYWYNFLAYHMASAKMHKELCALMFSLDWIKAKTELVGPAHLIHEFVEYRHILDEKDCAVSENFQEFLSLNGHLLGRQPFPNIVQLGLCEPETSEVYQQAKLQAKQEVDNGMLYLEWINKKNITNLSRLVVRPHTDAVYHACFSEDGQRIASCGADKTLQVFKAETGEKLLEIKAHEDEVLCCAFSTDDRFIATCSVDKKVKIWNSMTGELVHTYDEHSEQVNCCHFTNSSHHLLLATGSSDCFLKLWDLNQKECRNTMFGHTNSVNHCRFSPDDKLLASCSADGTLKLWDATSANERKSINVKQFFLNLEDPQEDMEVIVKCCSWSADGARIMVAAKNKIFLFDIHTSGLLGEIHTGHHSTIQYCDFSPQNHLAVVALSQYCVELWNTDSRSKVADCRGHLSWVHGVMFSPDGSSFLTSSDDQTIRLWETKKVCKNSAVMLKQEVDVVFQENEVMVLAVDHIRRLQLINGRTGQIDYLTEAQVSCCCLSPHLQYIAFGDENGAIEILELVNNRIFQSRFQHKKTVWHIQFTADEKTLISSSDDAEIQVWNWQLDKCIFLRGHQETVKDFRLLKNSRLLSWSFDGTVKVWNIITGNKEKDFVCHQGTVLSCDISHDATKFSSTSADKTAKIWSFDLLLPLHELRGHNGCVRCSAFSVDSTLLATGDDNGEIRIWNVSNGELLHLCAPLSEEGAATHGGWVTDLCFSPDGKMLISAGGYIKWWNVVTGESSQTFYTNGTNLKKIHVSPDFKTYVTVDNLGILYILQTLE

CHO-K1 = assay: Counterscreen for antagonists of the orexin 1 receptor (OX1R; HCRTR1): Homogeneous time resolved fluorescence (HTRF)-based cell-based dose response assay to identify antagonists of the parental CHO-K1 cell line. [Related pubchem assays (depositor defined):AID434989, AID435008, AID463079, AID485270, AID492963, AID492964, AID492965, AID493232, AID504699, AID504701]; format: functional; conditions: Cricetulus griseus;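 further: potency for inhibition of ATP-stimulated IP1 production as antagonists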
[2] = Counterscreen for antagonists of the orexin 1 receptor (OX1R; HCRTR1): Fluorescence-based cell-based high throughput dose response assay to identify antagonists of the parental CHO cell line. [Related pubchem assays (depositor defined):AID434989, AID435008, AID463079, AID485270, AID492963, AID492964, AID492965, AID493232, AID504699, AID504701]; format: functional
[3] = target: T3, Orexin/Hypocretin receptor type 1 (Homo sapiens, UniProt O43613); assay: Homogeneous Time Resolved Fluorescence (HTRF)-based cell-based high throughput dose response assay for antagonists of the orexin 1 receptor (OX1R; HCRTR1). [Related pubchem assays (depositor defined):AID434989, AID435008, AID463079, AID485270, AID492963, AID492964, AID492965, AID493232, AID504717, AID504718]; format: functional
T3 sequence (O43613 whole entry): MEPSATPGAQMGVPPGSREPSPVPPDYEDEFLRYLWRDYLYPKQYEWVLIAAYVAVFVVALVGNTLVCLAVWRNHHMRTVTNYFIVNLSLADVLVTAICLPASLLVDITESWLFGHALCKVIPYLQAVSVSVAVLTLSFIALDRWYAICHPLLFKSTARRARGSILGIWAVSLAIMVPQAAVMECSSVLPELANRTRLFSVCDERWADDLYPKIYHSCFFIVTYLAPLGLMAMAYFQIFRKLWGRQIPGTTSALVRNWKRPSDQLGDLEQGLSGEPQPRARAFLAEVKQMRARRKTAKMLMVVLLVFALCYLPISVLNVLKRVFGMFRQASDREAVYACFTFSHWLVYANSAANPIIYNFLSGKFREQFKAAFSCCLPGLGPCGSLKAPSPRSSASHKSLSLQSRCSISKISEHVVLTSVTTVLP

[4] = target: T4, Heat shock factor protein 1 (Mus musculus, UniProt P38532); assay: HSF1 potentiators in luciferase reporter cells, confirmation, cell-based, NIH3T3, luminescence, dose retest (AID 435004); format: functional;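 further: stress induced by proteasome inhibitor MG132 added 30 min after compound; luciferase reporter driven by HSF1 response element in NIH3T3 cells; actives raise luminescence as potentiators of the MG132 stress response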
T4 sequence (P38532 whole entry): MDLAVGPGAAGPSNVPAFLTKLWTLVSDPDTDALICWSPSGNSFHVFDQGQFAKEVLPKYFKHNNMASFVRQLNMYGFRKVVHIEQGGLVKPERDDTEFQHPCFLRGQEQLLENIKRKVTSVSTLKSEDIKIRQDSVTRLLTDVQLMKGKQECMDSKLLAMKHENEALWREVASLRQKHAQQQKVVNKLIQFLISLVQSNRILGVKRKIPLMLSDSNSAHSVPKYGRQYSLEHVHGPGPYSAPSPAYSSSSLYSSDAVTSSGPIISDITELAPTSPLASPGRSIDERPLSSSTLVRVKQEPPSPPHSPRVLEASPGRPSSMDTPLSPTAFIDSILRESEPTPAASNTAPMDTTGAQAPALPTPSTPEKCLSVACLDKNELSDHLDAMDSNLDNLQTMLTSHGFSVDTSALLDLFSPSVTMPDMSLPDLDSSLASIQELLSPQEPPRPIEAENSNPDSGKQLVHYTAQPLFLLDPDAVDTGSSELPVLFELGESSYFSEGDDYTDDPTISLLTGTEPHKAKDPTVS

[5] = target: T3, Orexin/Hypocretin receptor type 1; assay: Fluorescence-based cell-based high throughput dose response assay for antagonists of the orexin 1 receptor (OX1R; HCRTR1). [Related pubchem assays (depositor defined):AID434989, AID435008, AID463079, AID485270, AID492963, AID492964, AID492965, AID493232, AID504717, AID504718]; format: functional
[6] = target: Intestinal-type alkaline phosphatase (Homo sapiens, UniProt P09923); assay: Dose Response confirmation of uHTS hits from a small molecule inhibitors of human intestinal alkaline phosphatase via a luminescent assay. [Related pubchem assays (depositor defined):AID2544, AID2574]; format: functional
Cytochrome P450 2C9 = Cytochrome P450 2C9 (Homo sapiens, UniProt P11712)
HEK293 [7] = assay: NOD1 signaling inhibitors, primary screen, cell-based, luminescence, uHTS (AID 1578); format: functional; conditions: Homo sapiens
HEK293 [8] = assay: cells; format: functional, cell-based; conditions: Homo sapiens
HEK293 [9] = assay: cells; format: functional, cell-based; conditions: Homo sapiens; remark: listed apart in the source
[10] = target: Nucleotide-binding oligomerization domain-containing protein 2 (Homo sapiens, UniProt Q9HC29); assay: NOD2 signaling inhibitors, cell-based, luminescence, uHTS, HEK293 (AID 1566); format: functional
HEK293 [11] = assay: NOD2 signaling inhibitors in MDP-stimulated cells, cell-based, uHTS, luminescence (AID 2001); format: functional; conditions: Homo sapiens
HEK293 [12] = assay: cells; format: functional, cell-based; conditions: Homo sapiens; remark: listed apart in the source
[13] = system: Streptococcus sp. 'group A'; assay: growth inhibition of control SK(-) GAS strain, dose response, counter-screen for streptokinase expression inhibitor project, luminescence, kanamycin, BacTiterGlo, confirmation (AID 1900); format: functional, organism-based
Streptokinase A = target: T5, Streptokinase A (Streptococcus pyogenes serotype M1, UniProt P10520); assay: S. pyogenes streptokinase expression inhibitors, potency, dose response, plasminogen activation absorbance, OD405 (AID 1914); format: functional, Streptococcus pyogenes M1 GAS;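 further: secreted streptokinase activity via plasminogen activation per viability signal from cell pellet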
T5 sequence (P10520 whole entry): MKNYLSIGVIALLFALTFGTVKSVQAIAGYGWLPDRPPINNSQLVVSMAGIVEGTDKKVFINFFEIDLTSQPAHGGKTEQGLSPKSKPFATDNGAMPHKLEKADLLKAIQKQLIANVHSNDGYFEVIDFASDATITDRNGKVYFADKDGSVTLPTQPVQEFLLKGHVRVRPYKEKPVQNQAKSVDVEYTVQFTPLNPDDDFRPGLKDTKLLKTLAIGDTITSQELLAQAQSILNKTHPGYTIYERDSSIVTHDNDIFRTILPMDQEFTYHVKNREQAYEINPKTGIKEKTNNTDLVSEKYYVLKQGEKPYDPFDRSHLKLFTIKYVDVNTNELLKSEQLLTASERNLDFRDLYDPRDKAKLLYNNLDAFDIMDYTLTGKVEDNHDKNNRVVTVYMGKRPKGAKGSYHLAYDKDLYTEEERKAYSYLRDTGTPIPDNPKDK

[14] = inhibitors of intracellular T. cruzi replication, confirmation, NIH3T3 host cells, beta-gal luminescence (AID 2044); format: functional, cell-based;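 further: intracellular parasites grown in NIH/3T3 mouse fibroblasts as host cells; luminescent beta-galactosidase reporter signal from transgenic T. cruzi replicating inside host cells; inhibitors lower the luminescence signal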
[15] = cytotoxicity toward NIH3T3 fibroblasts, dose response, counter-screen, cell-based, ATP luminescence, mouse fibroblasts (AID 2010); format: functional;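 further: cells exposed to compound for about 90 hours before reading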
Streptococcus = assay: Group A Streptococcus viability loss, dose response, counter-screen for streptokinase expression inhibitor project, luminescence, BacTiterGlo (AID 1915); format: functional, organism-based;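 further: potency for reduction of bacterial viability or growth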
Vero = assay: cells; format: functional; conditions: Chlorocebus sabaeus
[16] = A549 cell cytotoxicity, dose response, cytotoxicity control, plate reader, cherry-pick, antagonist series (AID 743412); format: functional, cell-based
[17] = HepG2 cell cytotoxicity, dose response, cytotoxicity control, plate reader, cherry-pick, antagonist series (AID 743416); format: functional, cell-based
[18] = LGR2 antagonists, dose response, cell-based, HEK293, CRE-luciferase reporter, cherry pick, set 2 (AID 743343); format: functional;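 further: transfected cells were stimulated with diluted bursicon conditioned medium after compound addition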
[19] = MC4R antagonists, dose response, counter-screen for LGR2 antagonist project, cell-based, plate reader, cherry pick (AID 743444); format: functional;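 further: transfected HEK 293 cells stimulated with alpha-MSH peptide; potency of inhibitors of the alpha-MSH evoked signal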
[20] = HEK293 cell cytotoxicity, dose response, cytotoxicity control, plate reader, cherry-picked samples (AID 743446); format: functional, cell-based

Chain of Nucleotide-binding oligomerization domain-containing protein 2 (Q9HC29 whole entry, the tested form may be a part): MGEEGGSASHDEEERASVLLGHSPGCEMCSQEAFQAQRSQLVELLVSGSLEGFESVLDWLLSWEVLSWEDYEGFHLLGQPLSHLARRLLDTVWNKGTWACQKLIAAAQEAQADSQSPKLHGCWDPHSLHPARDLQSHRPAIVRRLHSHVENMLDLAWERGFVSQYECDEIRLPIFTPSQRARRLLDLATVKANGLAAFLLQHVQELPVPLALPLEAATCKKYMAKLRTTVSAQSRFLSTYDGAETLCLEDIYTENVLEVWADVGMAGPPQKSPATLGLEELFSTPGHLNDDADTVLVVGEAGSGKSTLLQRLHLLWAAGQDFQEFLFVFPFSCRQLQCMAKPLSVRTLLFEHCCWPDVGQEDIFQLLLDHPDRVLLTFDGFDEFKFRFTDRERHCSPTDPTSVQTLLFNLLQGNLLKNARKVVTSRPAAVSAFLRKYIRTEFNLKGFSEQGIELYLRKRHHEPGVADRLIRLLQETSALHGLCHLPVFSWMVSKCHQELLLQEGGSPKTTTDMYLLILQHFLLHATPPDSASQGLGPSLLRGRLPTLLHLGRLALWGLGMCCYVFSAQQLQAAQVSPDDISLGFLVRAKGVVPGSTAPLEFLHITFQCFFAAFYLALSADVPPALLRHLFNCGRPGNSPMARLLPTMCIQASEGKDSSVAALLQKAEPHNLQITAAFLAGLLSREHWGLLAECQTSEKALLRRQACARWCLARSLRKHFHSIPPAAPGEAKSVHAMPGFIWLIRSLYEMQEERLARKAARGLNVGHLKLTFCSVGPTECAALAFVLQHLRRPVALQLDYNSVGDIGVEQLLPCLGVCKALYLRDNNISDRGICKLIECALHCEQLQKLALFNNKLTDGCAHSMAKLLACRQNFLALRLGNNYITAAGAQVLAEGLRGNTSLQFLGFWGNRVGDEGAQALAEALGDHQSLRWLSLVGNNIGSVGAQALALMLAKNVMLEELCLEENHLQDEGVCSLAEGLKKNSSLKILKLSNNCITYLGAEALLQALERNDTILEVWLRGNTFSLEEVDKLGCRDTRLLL
Chain of Intestinal-type alkaline phosphatase (P09923 whole entry): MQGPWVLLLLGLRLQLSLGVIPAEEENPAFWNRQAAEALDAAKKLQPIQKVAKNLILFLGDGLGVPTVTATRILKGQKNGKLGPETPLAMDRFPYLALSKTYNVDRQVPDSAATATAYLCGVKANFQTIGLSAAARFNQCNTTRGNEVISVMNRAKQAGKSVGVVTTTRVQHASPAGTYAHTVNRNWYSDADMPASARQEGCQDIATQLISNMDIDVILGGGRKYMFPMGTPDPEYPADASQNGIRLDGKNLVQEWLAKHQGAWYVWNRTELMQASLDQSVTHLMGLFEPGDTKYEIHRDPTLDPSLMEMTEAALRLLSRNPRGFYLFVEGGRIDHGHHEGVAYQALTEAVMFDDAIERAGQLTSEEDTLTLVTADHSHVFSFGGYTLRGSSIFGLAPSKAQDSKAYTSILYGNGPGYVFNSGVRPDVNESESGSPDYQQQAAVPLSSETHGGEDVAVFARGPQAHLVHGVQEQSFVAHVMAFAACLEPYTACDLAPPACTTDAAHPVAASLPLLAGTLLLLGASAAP
Chain of Cytochrome P450 2C9 (P11712 whole entry): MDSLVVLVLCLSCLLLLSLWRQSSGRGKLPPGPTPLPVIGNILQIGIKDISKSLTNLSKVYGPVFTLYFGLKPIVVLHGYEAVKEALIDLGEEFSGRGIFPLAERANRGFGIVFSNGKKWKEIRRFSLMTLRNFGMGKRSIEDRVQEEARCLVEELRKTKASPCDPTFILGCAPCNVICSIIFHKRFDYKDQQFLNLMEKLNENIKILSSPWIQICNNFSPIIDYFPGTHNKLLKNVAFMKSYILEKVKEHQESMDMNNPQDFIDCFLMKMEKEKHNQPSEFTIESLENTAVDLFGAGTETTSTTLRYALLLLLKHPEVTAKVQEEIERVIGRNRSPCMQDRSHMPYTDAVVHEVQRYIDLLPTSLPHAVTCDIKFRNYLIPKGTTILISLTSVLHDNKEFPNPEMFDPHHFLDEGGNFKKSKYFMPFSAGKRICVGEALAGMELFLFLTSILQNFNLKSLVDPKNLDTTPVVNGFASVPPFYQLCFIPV

c1cc2c3c(cccc3c1)NC1(CCCCCC1)N2
IC50 (Bcl-2-like protein 10): 78.4 µM (inactive)
IC50 [1]: 6.58 µM (active)

OC(CN1c2ccccc2Sc2ccccc21)Cn1nnc2ccccc21 (stereo not drawn)
IC50 (CHO-K1): > 66.2 µM (inactive)
IC50 [2]: 21.3 µM (inactive)
IC50 [3]: 13.3 µM (inactive)
EC50 [4]: > 260 µM (inactive)
IC50 [5]: 16.4 µM (inactive)

CCOC(=O)c1c(NC(=O)Cn2cc([N+](=O)[O-])cn2)sc2c1CCC2
IC50 [6]: > 100 µM (inactive)
AC50 (Cytochrome P450 2C9): 3.55 µM (inconclusive)

CCn1cnc2sc(C(=O)O)c(C)c2c1=O
IC50 [6]: > 100 µM (inactive)

COc1ccc(C)cc1NC(=O)CSc1ccc(-c2ccco2)nn1
EC50 (HEK293 [7]): > 20 µM (inactive)
IC50 (HEK293 [8]): > 20 µM (inactive)
IC50 (HEK293 [9]): > 20 µM (inactive)
EC50 [10]: > 20 µM (inactive)
IC50 (HEK293 [11]): 9.49 µM (inactive)
IC50 (HEK293 [12]): > 20 µM (inactive)

CC(=O)c1c(C)[nH]c(C(=O)Nc2nc(-c3ccc(-c4ccccc4)cc3)cs2)c1C
EC50 (HEK293 [7]): 3.76 µM (active)
EC50 [13]: 4.48 µM (active)
IC50 (HEK293 [8]): 4.41 µM (active)
EC50 (Streptokinase A): > 150 µM (not active)
IC50 (HEK293 [9]): 11.2 µM (active)
EC50 [10]: 14.1 µM (active)
IC50 (HEK293 [11]): 4.86 µM (inactive)
EC50 [14]: 876 nM (active)
IC50 (HEK293 [12]): 18.2 µM (active)
EC50 [15]: > 60 µM (not active)
EC50 (Streptococcus): 16.7 µM (active)
CC50 (Vero): 21.1 µM (active)
AC50 [16]: 17.6 µM (active)
AC50 [17]: 23.5 µM (active)
AC50 [18]: 40.2 µM (active)
AC50 [19]: 20 µM (active)
AC50 [20]: 17.9 µM (active)

Source: ChEMBL document CHEMBL1201862, “PubChem BioAssay data set” (2004)
